Reference: publication PMC10049421, “Anticancer Activity of Sunitinib Analogues in Human Pancreatic Cancer Cell Cultures under Normoxia and Hypoxia” (International Journal of Molecular Sciences, 2023)

Columns and labels:
BxPC-3 cell line = conditions: BxPC-3, concentration-dependent; cited from earlier work
PANC-1 cells [1] = conditions: cited from earlier work
Capan-2 cell line = conditions: Capan-2, concentration-dependent; cited from earlier work
[2] = test system: MIA PaCa-2 and PANC-1 cells; assay: MTT cell viability, both pancreatic cancer cell lines; assay type: cell-based, human; conditions: for activity on cell viability, comparison between cell lines: EC50 comparison MIA PaCa-2 vs PANC-1
Procedure: (§1) Cell viability was tested using MTT (3-(4,5-dimethylthiazol-2-yl)-2,5-diphenyltetrazolium bromide; Sigma-Aldrich Co.) assay, as described previously Briefly, MIA PaCa-2 and PANC-1 cells were seeded in 96-well plates (Corning, NY, USA) in a volume of 100 μL (4000 cells/well). After 24 h incubation, the cells were treated with sunitinib and its derivatives. Only the medium without cells was used as a positive control, and the medium with 0.5% DMSO (Sigma-Aldrich Co.) served as a negative control. After 72 h the cells were incubated with the 0.5 mg/mL of MTT solution for the next 4 h. The coloured formazan product was dissolved in 100 μL DMSO. The absorbance was measured spectrophotometrically at wavelengths 570 and 630 nm. […] When determining the EC50 values of the compounds under hypoxic conditions, the growth medium was supplemented with 100 µM of CoCl2 solution (97%, Alfa Aesar, MA, USA).

MIA PaCa-2 cells [3] = assay: MTT cell viability assay, MIA PaCa-2; assay type: cell-based, human; conditions: for EC50: Homo sapiens, MIA PaCa-2, 72 h, 72 h, MTT
Procedure: as §1

MIA PaCa-2 cells [4] = assay: 'Wound healing' migration assay, MIA PaCa-2; assay type: cell-based, human; conditions: for inhibition of migration, hypoxia compared with normoxia: MIA PaCa-2
Procedure: (§2) Cell migration was tested by the ‘wound’ healing assay, as described elsewhere. Briefly, MIA PaCa-2 and PANC-1 cells were seeded into 24-well plates (Corning). MIA PaCa-2 at a density of 80,000 cells/well and PANC-1 at a density of 60,000 cells/well in 500 μL of medium and incubated in a humidified atmosphere containing 5% CO2 at 37 °C for 1 day. Then the monolayers were scratched with a sterile 100 μL pipette plastic tip in the centre of the well. The old cell medium is aspirated, the wells are rinsed with 400 μL phosphate-buffered saline (PBS, Gibco). […] Photos of ‘wounds’ were taken every 24 h for 3 days and the compound effect was evaluated by measuring the size of the “wound” area. Images were analysed by TScratch software (CSE Lab, Zurich, Switzerland).

PANC-1 cells [5] = assay: MTT cell viability assay, PANC-1; assay type: cell-based, human; conditions: for EC50: Homo sapiens, PANC-1, 72 h, 72 h, MTT
Procedure: as §1

human fibroblasts = assay: MTT cell viability, human fibroblasts (selectivity); assay type: cell-based; conditions: MIA PaCa-2 and PANC-1 vs fibroblasts
MIA PaCa-2 cells [6] = assay: Clonogenic assay, MIA PaCa-2; assay type: cell-based, human; conditions: for MIA PaCa-2 cell colony formation: 90% of EC50, normoxia; for number and area of colonies: MIA PaCa-2, higher concentration (90% of EC50), normoxia and hypoxia
Procedure: (§3) Compound effect on cell colony formation and growth was established by clonogenic assay, as previously published. […] Cells were incubated in a humidified atmosphere containing 5% CO2 at 37 °C and grown for 8 days. After incubation, the cells were rinsed with PBS and fixed with 10% formaldehyde, methanol-free (ThermoFisher Scientific, Waltham, MA, USA) solution for 20 min. Then the cells were rinsed with PBS two more times, and cell colonies were stained with 0.1% aqueous crystal violet solution (Sigma-Aldrich Co.) for 20 min, followed by rinses with sterile deionized water to remove the excess dye. Photos of colonies were taken using the G:BOX gel documentation system (Syngene International Ltd., Bengaluru, India) and Genesys software (Syngene International Ltd.). The number of colonies and their area were calculated using GeneTools colony and cell counting software (Syngene International Ltd.) according to the manufacturer’s instructions. Cell colony area and number in control groups were normalized to 100%. The percentage of drug-treated colony area and number were compared to the control.

PANC-1 cells [7] = assay: Clonogenic assay, PANC-1; assay type: cell-based, human; conditions: for number and area of colonies: PANC-1, higher concentration (90% of EC50), normoxia and hypoxia
Procedure: as §3

PANC-1 cells [8] = assay: 'Wound healing' migration assay, PANC-1; assay type: cell-based, human; conditions: for inhibition of migration, hypoxia compared with normoxia: PANC-1; for 'wound' area compared to the control: PANC-1, 0.35 μM
Procedure: as §2

PANC-1 cells [9] = test system: PANC-1 cells; set-up: method as in PMID 15202007; conditions: 10 μM; cited from earlier work
PANC-1 cell monolayer = conditions: PANC-1, 1 μM, cited from earlier work
MIA PaCa-2 cell line [10] = test system: MIA PaCa-2 cell line; set-up: method as in PMID 30341797; conditions: MIA PaCa-2, 5 μM; cited from earlier work
MIA PaCa-2 cell line [11] = test system: MIA PaCa-2 cell line; set-up: method as in PMID 26176887; conditions: MIA PaCa-2, 1 μM, 24 h and 48 h; cited from earlier work
[12] = MIA PaCa-2, hypoxia (100 µM CoCl2)

In the case of `CN(C)C/C=C/C(=O)Nc1cc2c(Nc3ccc(F)c(Cl)c3)ncnc2cc1O[C@H]1CCOC1` [Afatinib], the cell colony formation (BxPC-3 cell line) is given as “inhibited cell colony formation”, the cell colony formation (PANC-1 cells [1]; PANC-1, 0.25 to 2 μM) is given as “did not show an effect” and the cell colony formation (Capan-2 cell line) is given as “inhibited cell colony formation”.
For `Cc1nc(Nc2ncc(C(=O)Nc3c(C)cccc3Cl)s2)cc(N2CCN(CCO)CC2)n1` [Dasatinib], the “number of PANC-1 cell colonies” value (PANC-1 cells [1]; 10 μM) is listed as “significantly reduced”.
With `COc1ccc(C2CC(c3ccc4ccccc4c3)=NN2C2=NC(=O)/C(=C3/C(=O)Nc4ccc(Cl)cc43)S2)cc1` (stereo not shown) [EMAC4001] the “reduction of viability compared to sunitinib” value ([2]; 1 µM, 72 h, both cancer cell lines) was “statistically significantly stronger reduced”, the “reduction of cell viability” value ([2]; 1 µM, 72 h of incubation, at least one cell line) was 90% and the “activity on cell viability, comparison between cell lines” value [2] was “more active in the PANC-1 cell line”. The EC50 (MIA PaCa-2 cells [3]; [12]) was 100 ± 13 nM, the EC50 (MIA PaCa-2 cells [3]; MIA PaCa-2, normoxia) was 113 ± 8 nM and the “times more active than sunitinib” value (MIA PaCa-2 cells [3]; MIA PaCa-2, hypoxia) was 35 times. The “times more active than sunitinib” value (MIA PaCa-2 cells [3]; MIA PaCa-2, normoxia) was 24 times, the “inhibition of migration, hypoxia compared with normoxia” value (“inhibition … compared with normoxia” for short) (MIA PaCa-2 cells [4]) was “more than in normoxia” and the cell migration (MIA PaCa-2 cells [4]; normoxia, higher concentrations (90% of EC50)) was “inhibited cell migration”. The EC50 (PANC-1 cells [5]; PANC-1, hypoxia (100 µM CoCl2)) was 80 ± 5 nM, the EC50 (PANC-1 cells [5]; PANC-1, normoxia) was 98 ± 3 nM and the “times more active than sunitinib” value (PANC-1 cells [5]; PANC-1, hypoxia) was 47 times. For the same compound, the “times more active than sunitinib” value (PANC-1 cells [5]; PANC-1, normoxia) was 36 times, the “selectivity towards cancer cells compared to human fibroblasts” value (human fibroblasts) was “most selective compound” and the “MIA PaCa-2 cell colony growth, hypoxia compared with normoxia” value (MIA PaCa-2 cells [6]) was “stronger effect on the MIA PaCa-2 cell colony growth under hypoxia than normoxia”. For the same compound, the “MIA PaCa-2 cell colony formation” value (MIA PaCa-2 cells [6]) was “statistically significantly inhibited”, the “number and size of cell colonies compared to sunitinib” value (MIA PaCa-2 cells [6]; MIA PaCa-2, 90% of EC50, normoxia and hypoxia) was “less of MIA PaCa-2 and PANC-1 cell colonies and they were smaller” and the “number and area of colonies” value (MIA PaCa-2 cells [6]) was “significantly reduced the number and area of colonies”. The “PANC-1 cell colony formation (number) compared to the control” value (PANC-1 cells [7]; 90% of EC50, normoxia) was “inhibited the colony formation of PANC-1 cells”, the “number and size of cell colonies compared to sunitinib” value (PANC-1 cells [7]; PANC-1, 90% of EC50, normoxia and hypoxia) was “less of MIA PaCa-2 and PANC-1 cell colonies and they were smaller” and the “number and area of colonies” value (PANC-1 cells [7]) was “significantly reduced the number and area of colonies”. The “inhibition … compared with normoxia” value (PANC-1 cells [8]) was “the effect was the opposite”.
For `COc1cc2ncnc(Nc3ccc(F)c(Cl)c3)c2cc1OCCCN1CCOCC1` [Gefitinib], the “reduction of viability of PANC-1 cells” value (PANC-1 cells [9]) is given as 78%.
For `Nc1ccn([C@@H]2O[C@H](CO)[C@@H](O)C2(F)F)c(=O)n1` [gemcitabine], the “'wounds' compared to the control” value (PANC-1 cell monolayer; 24 h and 48 h) is given as “did not show a significant difference”, the colony formation (PANC-1 cells [1]; PANC-1, 5 μM) is given as “statistically significantly reduced” and the colony formation (MIA PaCa-2 cell line [10]) is given as “statistically significantly reduced”. The “'wounds' compared to the control” value (MIA PaCa-2 cell line [11]) was “did not show a significant difference”.
For `CCN(CC)CCNC(=O)c1c(C)[nH]c(/C=C2\C(=O)Nc3ccc(F)cc32)c1C` [sunitinib, Sunitinib malate], the “change in 'wound' area compared to the control” value (PANC-1 cell monolayer; 24 h) is listed as “did not establish a significant difference”, the “activity on cell viability, hypoxia compared with normoxia” value ([2]; EC50 comparison) is listed as “more active under normoxia than hypoxia conditions” and the “activity on cell viability, comparison between cell lines” value [2] is listed as “inhibited more efficiently the cell viability of the MIA PaCa-2 cell line”. For the same compound, the EC50 (MIA PaCa-2 cells [3]; [12]) was 3500 ± 300 nM, the EC50 (MIA PaCa-2 cells [3]; MIA PaCa-2, normoxia) was 2670 ± 210 nM and the “inhibition … compared with normoxia” value (MIA PaCa-2 cells [4]) was “more under hypoxic conditions”. The cell migration (MIA PaCa-2 cells [4]; MIA PaCa-2, 10 and 90% of EC50, normoxia and hypoxia (except lower concentration under normoxia)) was “statistically significantly inhibited cell migration”, the “decrease of PANC-1 cell viability” value (PANC-1 cells [5]; 3.5 μM) was “up to 50%” and the EC50 (PANC-1 cells [5]; PANC-1, hypoxia (100 µM CoCl2)) was 3730 ± 210 nM. For the same compound, the EC50 (PANC-1 cells [5]; PANC-1, normoxia) was 3530 ± 210 nM, the “MIA PaCa-2 cell colony formation” value (MIA PaCa-2 cells [6]) was “statistically significantly inhibited” and the “number and area of colonies” value (MIA PaCa-2 cells [6]) was “significantly reduced the number and area of colonies”. For the same compound, the “number and area of colonies” value (PANC-1 cells [7]) was “significantly reduced the number and area of colonies”, the “inhibition … compared with normoxia” value (PANC-1 cells [8]) was “more under hypoxic conditions” and the “'wound' area compared to the control” value (PANC-1 cells [8]; 24 h) was “no difference”. The “'wound' area compared to the control” value (PANC-1 cells [8]; 48 h and 72 h) was “significantly larger”, the cell migration (PANC-1 cells [8]; PANC-1, 10 and 90% of EC50, normoxia and hypoxia) was “statistically significantly inhibited cell migration” and the “'wound' area” value (PANC-1 cells [8]; PANC-1 monolayer, hypoxia, after 72 h) was 68.81 ± 5.24%.
